This series concerns BxPC-3 cells. Kind of series: MTT assay, cell viability of pancreatic cancer BxPC-3 cells. The class given is cell-based, human. On the procedure: Cell lines used in the present disclosure include human pancreatic cancer cell lines BxPC-3, Mia-Paca-2/R (gemcitabine resistant cell line), and Panc-1/R (gemcitabine resistant cell line); human liver cancer cell lines SK-Hep-1 and Hep 3B; and human brain glioblastoma cell line GBM8401, which is a TMZ-resistant cell line. Cells were cultured in Dulbecco's modified Eagle media (DMEM) supplemented with 10% heat inactivated fetal bovine serum (FBS), 50 units/mL penicillin G, 50 μg/mL streptomycin (pH 7.4), and the cells were maintained in humidified environment comprising 5% CO2/95% air at 37° C.
The absorbance of the solution at 570 nm was measured by spectrophotometer.
In general terms: Tetrazolium assays rely on reduction of a dye to a coloured formazan, in cell work by metabolically active cells.

The values that follow come from US20250375422A1, “METHOD FOR TREATING CANCERS” (Acura Nanomedicine Corporation, priority 2019, published 2025).

Consider `CCN(CCO)CCCC(C)Nc1ccnc2cc(Cl)ccc12` (centres unmarked) [HCQ, hydroxychloroquine], for which the “cell viability of BxPC-3 cells” value (HCQ (20 or 50 μM) alone) is given as “slightly and/or unaffected”. For the compound `COC(=O)Nc1nc2ccc(C(=O)c3ccccc3)cc2[nH]1` [MBZ, mebendazole], the viability (usually a read-out of living cells in per cent, often relative to untreated cells) at 5 µM (Homo sapiens, BXPC-3, MBZ (5 μM)) was about 60%.
